{
  "source": "patent US20040214804A1",
  "about": "“Combination of an aldosterone receptor antagonist and an anti-obesity agent” (Pharmacia Corporation, priority 2003, published 2004)",
  "origin": "cited, not measured here",
  "key": {"[1]": {"test_system": "dietary-induced obesity in dogs", "conditions": "during development of dietary-induced obesity"}, "[2]": {"test_system": "severe heart failure patients", "conditions": "left ventricular ejection fraction no more than 35%, on standard therapy (ACE inhibitor, loop diuretic, in some cases digoxin)"}},
  "data": [
    {"compound": "COC(=O)[C@@H]1CC2=CC(=O)CC[C@]2(C)[C@@]23O[C@@H]2C[C@@]2(C)[C@@H](CC[C@@]24CCC(=O)O4)[C@H]13", "note": "[Eplerenone, Pregn-4-ene-7,21-dicarboxylic acid, 9,11-epoxy-17-hydroxy-3-oxo-,γ-lactone, methyl ester, (7α,11α,17β)-]", "values": [
      {"measurement": "glomerular hyperfiltration associated with chronic dietary-induced obesity", "setting": "[1]", "result": "markedly attenuated"},
      {"measurement": "hypertension associated with chronic dietary-induced obesity", "setting": "[1]", "result": "markedly attenuated"},
      {"measurement": "sodium retention associated with chronic dietary-induced obesity", "setting": "[1]", "result": "markedly attenuated"}
    ]},
    {"compound": "CC(=O)S[C@@H]1CC2=CC(=O)CCC2(C)C2CC[C@]3(C)[C@@H](CC[C@@]34CCC(=O)O4)C21", "note": "(stereo partly drawn) [spironolactone, 17-hydroxy-7α-mercapto-3-oxo-17α-pregn-4-ene-21-carboxylic acid γ-lactone acetate]", "values": [
      {"measurement": "incidence of hospitalization relative to placebo-treated subjects", "setting": "[2]", "result": "statistically significant reduction"},
      {"measurement": "mortality relative to placebo-treated subjects", "setting": "[2]", "result": "statistically significant reduction"}
    ]}
  ]
}
